This is an account of results in article PMC5233962 (Scientific Reports, 2017).

Data set [1] deals with rodent H3R. Put plainly: Affinity at rodent H3R (discussion). Format: binding. Conditions: rodent vs human H3R.
Data set [2] deals with T1, human recombinant membrane-bound MAO B (Homo sapiens, UniProt P27338).
T1 construct: purchased Sigma-Aldrich
T1 sequence (P27338 1-520): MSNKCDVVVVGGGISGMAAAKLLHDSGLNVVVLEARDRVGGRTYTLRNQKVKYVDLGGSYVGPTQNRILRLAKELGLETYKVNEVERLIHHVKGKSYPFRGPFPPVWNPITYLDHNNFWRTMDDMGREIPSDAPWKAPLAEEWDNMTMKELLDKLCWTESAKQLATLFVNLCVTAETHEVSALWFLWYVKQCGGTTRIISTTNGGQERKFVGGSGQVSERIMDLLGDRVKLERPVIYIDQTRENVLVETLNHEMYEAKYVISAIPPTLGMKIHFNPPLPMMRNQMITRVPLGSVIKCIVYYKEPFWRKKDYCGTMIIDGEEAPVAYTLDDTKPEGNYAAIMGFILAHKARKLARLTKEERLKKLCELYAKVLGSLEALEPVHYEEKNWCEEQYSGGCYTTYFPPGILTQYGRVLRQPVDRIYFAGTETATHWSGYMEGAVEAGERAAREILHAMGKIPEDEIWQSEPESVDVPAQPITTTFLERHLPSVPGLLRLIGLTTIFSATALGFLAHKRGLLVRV
Put plainly: Spectrophotometric IC50 determination, human MAO B. The format is biochemical. The following applies: for IC50: spectrophotometric, read-out: IC50 hMAO B.

In data set [3] the target is T2, rat brain MAO A (Rattus norvegicus, UniProt P21396).
T2 construct: the crude homogenates prepared from pooled brain from three rats were used; from tissue; host or cells: Wistar rat brain, crude homogenate
T2 sequence (P21396 whole entry): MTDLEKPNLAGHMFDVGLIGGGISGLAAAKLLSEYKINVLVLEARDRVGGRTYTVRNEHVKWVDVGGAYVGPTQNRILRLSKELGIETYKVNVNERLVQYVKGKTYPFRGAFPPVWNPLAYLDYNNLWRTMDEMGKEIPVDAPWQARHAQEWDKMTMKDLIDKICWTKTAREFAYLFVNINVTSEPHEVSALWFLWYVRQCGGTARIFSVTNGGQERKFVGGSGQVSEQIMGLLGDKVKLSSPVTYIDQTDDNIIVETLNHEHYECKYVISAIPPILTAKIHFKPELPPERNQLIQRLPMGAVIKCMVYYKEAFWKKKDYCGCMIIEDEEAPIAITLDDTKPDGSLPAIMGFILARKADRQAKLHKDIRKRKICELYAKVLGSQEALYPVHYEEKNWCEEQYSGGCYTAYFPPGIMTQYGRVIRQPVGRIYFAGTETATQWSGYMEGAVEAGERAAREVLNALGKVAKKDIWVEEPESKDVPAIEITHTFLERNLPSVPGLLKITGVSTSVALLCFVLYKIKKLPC
Nature of the data set: Radiometric IC50 determination, rat brain MAO A. Format: biochemical. Conditions: substrate 5-HT, rat brain homogenate, read-out: IC50 rMAO A. As to the method: (§1) The IC50 values of ciproxifan for rat brain MAO (rMAO) were obtained radiometrically using serotonin (5-HT) and phenylethylamine (PEA) as MAO A and MAO B substrates, respectively.
(§2) Wistar male rats were sacrificed, the brains were quickly excised from the skulls, cleaned of residual meninges and frozen on dry ice. For each experiment the crude homogenates prepared from pooled brain from three rats were used. Enzyme activity of MAO A or MAO B was measured using radioactive substrate (PerkinElmer/NEN): serotonin (5-[2-^14C]-hydroxytryptamine binoxalate) or β-[ethyl-1-^14C]-phenyl-ethyl-amine hydrochloride (PEA), respectively, with the procedure described by Fowler and Tipton 1981[25] with some modification according to Gómez et al.[26]. […] IC50 values were determined in three independent experiments, each performed in duplicates.

Data set [4] has as its target T3, rat brain MAO B (Rattus norvegicus, UniProt P19643).
T3 construct: the crude homogenates prepared from pooled brain from three rats were used; from tissue; host or cells: Wistar rat brain, crude homogenate
Put plainly: Radiometric IC50 determination, rat brain MAO B. Format: biochemical. The protocol: as §1, §2

For data set [5], the system named is hMAO. Nature of the data set: Type of inhibition from dilution experiments, both hMAO isoforms. The format is biochemical, human. Conditions: dilution experiment, preincubation 10 × IC50, 100-fold dilution. As to the method:
After preincubation probes were diluted 100-fold, measured at saturated substrate conditions and the remaining enzyme activity was compared to that of MAO preincubated without ciproxifan.
Reversibility of hMAO inhibition by ciproxifan was assessed by dilution experiments. […] The inhibitor volume represented one-tenth of the total preincubation volume. […] Enzymatic conversion rates were determined in the presence of kynuramine for hMAO A and benzylamine for hMAO B at saturating substrate concentrations (10 × KM) under potassium phosphate buffer conditions (50 mM, pH = 7.4).

Data set [6] addresses rH3R. Conditions: rat H3R; cited from earlier work.
Data set [7] addresses mH3R. The arrangement: method as in PMID 15341517. Conditions: mouse H3R; cited from earlier work.
Data set [8] deals with mkH3R. On the set-up: method as in PMID 14660004. Conditions: monkey H3R; cited from earlier work.
Data set [9] concerns the target hH3R. On the set-up: method as in PMID 11090094, PMID 12606603, PMID 14660004. The following applies: human H3R; cited from earlier work.
Data set [10] addresses hH1R. The arrangement: method as in PMID 12606603. Conditions: human; cited from earlier work.
Data set [11] has as its target hH2R. On the set-up: method as in PMID 12606603. Conditions: human; cited from earlier work.
Data set [12] deals with hH4R. On the set-up: method as in PMID 12606603. Conditions: human; cited from earlier work.
Data set [13] has as its target hα2C. The arrangement: method as in PMID 12606603. The following applies: human; cited from earlier work.
The target of data set [14] is hα2A. On the set-up: method as in PMID 12606603. The following applies: human; cited from earlier work.
Data set [15] has as its target rα1D. The arrangement: method as in PMID 9808693. Conditions: rat aorta; cited from earlier work.
Data set [16] concerns the target gpβ1. The arrangement: method as in PMID 9808693. Conditions: guinea pig atrium; cited from earlier work.
Data set [17] deals with gp M3. On the set-up: method as in PMID 9808693. Conditions: guinea pig ileum; cited from earlier work.
The target in data set [18] is gp5-HT3. On the set-up: method as in PMID 9808693. The following applies: guinea pig ileum; cited from earlier work.
Data set [19] deals with gp5-HT1B. On the set-up: method as in PMID 9808693. Conditions: guinea pig iliac; cited from earlier work.
Data set [20] concerns the target r5-HT1. The arrangement: method as in PMID 18683917. Conditions: rat; cited from earlier work.
Data set [21] deals with r5-HT2A. On the set-up: method as in PMID 9808693. The following applies: rat tail; cited from earlier work.
The target in data set [22] is r5-HT3. On the set-up: method as in PMID 12606603. The following applies: rat; cited from earlier work.
The target in data set [23] is r5-HT4. The arrangement: method as in PMID 9808693. The following applies: rat esophagus; cited from earlier work.
On the set-up of data set [24]: method as in PMID 18305012. Conditions: applied i.p. to rats; cited from earlier work.
For data set [25], the target named is human recombinant membrane-bound MAO A (Homo sapiens, UniProt P21397). Put plainly: Spectrophotometric IC50 determination, human MAO A. Conditions: IC50 hMAO A, substrate KYN.
human recombinant membrane-bound MAO A, sequence (P21397 whole entry): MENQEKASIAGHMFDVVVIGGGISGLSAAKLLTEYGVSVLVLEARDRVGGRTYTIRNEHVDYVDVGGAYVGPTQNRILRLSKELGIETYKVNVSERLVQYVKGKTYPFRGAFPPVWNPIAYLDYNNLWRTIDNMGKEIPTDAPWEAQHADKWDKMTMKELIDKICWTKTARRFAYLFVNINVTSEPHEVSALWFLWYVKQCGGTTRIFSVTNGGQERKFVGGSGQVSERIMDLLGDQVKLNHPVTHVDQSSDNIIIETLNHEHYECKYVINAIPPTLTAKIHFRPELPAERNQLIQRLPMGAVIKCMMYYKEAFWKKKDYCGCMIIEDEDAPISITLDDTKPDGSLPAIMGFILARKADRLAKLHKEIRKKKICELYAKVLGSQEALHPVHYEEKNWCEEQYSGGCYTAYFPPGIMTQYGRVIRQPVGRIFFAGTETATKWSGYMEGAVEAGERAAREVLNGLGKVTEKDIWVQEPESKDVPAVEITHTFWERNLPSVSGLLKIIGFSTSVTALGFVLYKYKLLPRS
Protocol: Enzyme studies were carried out using human recombinant membrane-bound MAO A and MAO B (Sigma-Aldrich, St. Louis, MO). […] For optimal enzyme activity all assays were carried out under potassium phosphate buffered conditions (50 mM, pH = 7.4). […] Data were analysed using GraphPad PRISM version 6. For IC50 determinations initial velocities for each experiment were normalized (expressed as percentage), plotted against inhibitor concentrations and fitted using the non-linear regression “log inhibitor vs. response (three parameters)”. IC50 values were determined in at least three independent experiments, each performed at least in duplicates.
For data set [26], the system named is MAO. Conditions: cited from earlier work.

“And” between values parts separate entries of the source, which are not always exact repeats. Equal entries are not always repeated. Where two headings read alike, the source gives them in different places.

T3 sequence (P19643 whole entry): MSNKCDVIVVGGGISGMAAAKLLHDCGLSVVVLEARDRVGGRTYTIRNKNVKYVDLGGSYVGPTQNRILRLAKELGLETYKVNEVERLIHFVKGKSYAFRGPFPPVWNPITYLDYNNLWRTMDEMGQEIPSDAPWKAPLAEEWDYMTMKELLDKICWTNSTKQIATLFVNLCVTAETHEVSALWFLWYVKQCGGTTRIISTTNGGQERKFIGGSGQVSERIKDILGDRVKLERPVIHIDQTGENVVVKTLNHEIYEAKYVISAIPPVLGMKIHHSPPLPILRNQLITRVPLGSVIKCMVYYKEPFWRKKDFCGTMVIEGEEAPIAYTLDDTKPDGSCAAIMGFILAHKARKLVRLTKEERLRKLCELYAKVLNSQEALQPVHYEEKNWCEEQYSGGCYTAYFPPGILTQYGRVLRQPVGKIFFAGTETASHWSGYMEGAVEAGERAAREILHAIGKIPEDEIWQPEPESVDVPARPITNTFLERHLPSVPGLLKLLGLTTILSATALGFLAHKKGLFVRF

Consider `O=C(c1ccc(OCCCc2cnc[nH]2)cc1)C1CC1` [Ciproxifan, cyclopropyl 4-(3-(1H-imidazol-4-yl)propyloxy)phenyl methanone], for which the “Ki at rodent H3R, fold lower than at the human H3R” value in [1] is recorded as 30- to 100 fold. The “IC50, MAO B/IC50, MAO A” value in data set [2] (human MAO) is given as 0.2; in [4] (rat brain MAO), 0.4. Further, in data set [2] (human MAO B over MAO A), the “preference for MAO B” value was “about 5 fold”. Further, the IC50 in data set [2] (substrate BZA) is 4.3 ± 0.7 µM; in data set [2] (substrate KYN), 2 µM and 2.1 µM; in [3], 38 µM and 37.5 µM; in [4] (substrate PEA, radiometric, rat brain homogenate, read-out: IC50 rMAO B), 15 µM and 15.4 µM; in data set [25], 11 µM and 11.4 µM. Also, in data set [5], the “Inhibition Type” value is given as “Reversible”. Moreover, the Ki in data set [6] is 0.0004 to 0.0062 µM; in data set [7], 0.0005 to 0.0008 µM; in data set [8] it was 0.041 µM; in data set [9], 0.046 to 0.18 µM; in [10], greater than 10 µM; in [11], greater than 10 µM. The inhibition constant Ki in data set [12] was 1.86 µM; in data set [13] it was 0.063 µM; in [14] it was 0.043 µM; in data set [15], 3.98 µM; in [16], 12.6 µM; in data set [17], 3.16 µM. For the same compound, the Ki in [18] is greater than 3.16 µM; in data set [19] it was greater than 10 µM; in [20], 16.6 µM; in data set [21], 15.8 µM; in [22], 0.302 µM; in data set [23], greater than 2 µM. Also, the brain concentrations in [24] was no more than 10 µM.
As to `C#CCN(C)CCCOc1ccc(Cl)cc1Cl` [Clorgyline], the “Inhibition Type” value in data set [26] was “Mixed/Irreversible[33]”.
For the compound `C#CCN(C)[C@H](C)Cc1ccccc1` [L-Deprenyl], in data set [26], the “Inhibition Type” value is “Mixed/Irreversible[33]”.
As for `O=C(NCCN1CCOCC1)c1ccc(Cl)cc1` [Moclobemide], in data set [26], the “Inhibition Type” value is “Reversible[32]”.
As for `C[C@H](NCc1ccc(OCc2cccc(F)c2)cc1)C(N)=O` [Safinamide], in data set [26], the “Inhibition Type” value is “Reversible[20]”.

Broadly, the Ki is the dissociation constant of the complex between target and ligand, obtained from inhibition or displacement. For orientation: IC50 means the midpoint of a concentration-inhibition curve.
